We go through one compound from US4145540A, “7β-Phosphoramido-7α-methoxycephalosporanic acid derivatives” (Takeda Chemical Industries, Ltd., priority 1975, dated 1979).

Common to all, as to assay: antibiotic activity (MIC)
What all share (type): cell-based

Assay [1] deals with E. coli 0-111. To be noted: Escherichia coli, 0111. An excerpt: (§1) The antibiotic activity of sodium 7α-methoxy-7β-(2-aminothiazol-4-ylacetamido)-3-(1-methyl-1H-tetrazol-5-ylthiomethyl)-3-cephem-4-carboxylate obtained in the reference experiment is shown as follows.
Assay [2] has as its system E. coli NIHJ. To be noted: Escherichia coli.
Excerpt: as §1

Assay [3] has as its system E. coli T-7. The following applies: Escherichia coli, T7.
Excerpt: as §1

Assay [4] has as its system K. pneumoniae DT. The following applies: Klebsiella pneumoniae.
Excerpt: as §1

For assay [5], the system named is K. pneumoniae GN 3835. The following applies: Klebsiella pneumoniae, GN3835.
Excerpt: as §1

For assay [6], the system named is P. vulgaris GN 4413. To be noted: Proteus vulgaris, GN4413.
Excerpt: as §1

In assay [7] the test system is Ps. aeruginosae PM3. To be noted: Pseudomonas aeruginosa.
Excerpt: as §1

In assay [8] the test system is S. aureus 1840. To be noted: Staphylococcus aureus.
Excerpt: as §1

Assay [9] relates to S. aureus 209p. The following applies: Staphylococcus aureus.
Excerpt: as §1

Assay [10] concerns S. aureus Fs 40204. The following applies: Staphylococcus aureus, FS40204.
Excerpt: as §1

Assay [11] relates to Serr. marcescens IFO 12648. To be noted: Serratia marcescens, IFO12648.
Excerpt: as §1

For assay [12], the system named is Serratia TN0024.
Excerpt: as §1

Usually MIC stands for the lowest concentration found to suppress growth. Read a high MIC as weaker potency. Take `CO[C@@]1(NC(=O)Cc2csc(N)n2)C(=O)N2C(C(=O)O)=C(CSc3nnnn3C)CS[C@@H]21` [Sodium 7α-methoxy-7β-(2-aminothiazol-4-ylacetamido)-3-(1-methyl-1H-tetrazol-5-ylthiomethyl)-3-cephem-4-carboxylate]: the MIC amounted to 0.78 µg/mL in [1]; 1.56 µg/mL in assay [2]; 6.25 µg/mL in assay [3]; 0.78 µg/mL in assay [4]; 1.56 µg/mL in assay [5]; 6.25 µg/mL in assay [6]. Also, the MIC in assay [7] was found to be 6.25 µg/mL; in assay [8], 3.13 µg/mL; in assay [9], 1.56 µg/mL; in assay [10] it was 3.13 µg/mL; in assay [11], 6.25 µg/mL; in [12] it was 6.25 µg/mL.
